{"source": "patent US20110152194A1", "about": "“CHIMERIC NATRIURETIC POLYPEPTIDES AND METHODS FOR INHIBITING CARDIAC REMODELING” (MAYO FOUNDATION FOR MEDICAL EDUCATION AND RESEARCH, priority 2008, published 2011)", "key": {"normal anesthetized dogs": {"tested_on": "normal anesthetized dogs", "conditions": "dog, in vivo"}, "male mongrel dogs": {"tested_on": "male mongrel dogs", "assay": "In vivo actions of CD-NP, CNP and CNP-C continuous i.v. infusion in anesthetized dogs", "design": "species or system dog", "conditions": "for ANG II, angiotensin II / Aldosterone / CO, cardiac output / DFRNa, distal fractional reabsorption of Na+ / GFR, glomerular filtration rate / MAP, mean arterial pressure / PAP, pulmonary arterial pressure / PCWP, pulmonary capillary wedge pressure / PFRNa, proximal fractional reabsorption of Na+ / PRA, plasma renin activity / PVR, pulmonary vascular resistance / RAP, right atrial pressure / RBF / RVR, renal vascular resistance / SVR, systemic vascular resistance: dogs, 75 min i.v. infusion of CD-NP 50 ng/kg/min or equimolar CNP"}, "[1]": {"conditions": "in vivo; cited from earlier work"}}, "note": "“And” between values parts separate entries of the source, which are not always exact repeats. Identical values can stand only once. Like-named read-outs stand apart in the source and are kept apart here."}
{"substance": "B-type natriuretic peptide [BNP]", "values": [{"measurement": "GFR", "setting": "normal anesthetized dogs", "result": "lack of increase"}]}
{"substance": "GLSKGCFGLKLDRIGSMSGLGC [CNP]", "values": [{"measurement": "ANG II, angiotensin II", "setting": "male mongrel dogs; 30 min I", "result": "7.5 ± 1.4", "unit": "pg/mL"}, {"measurement": "Aldosterone", "setting": "male mongrel dogs; 30 min I", "result": "21.1 ± 3.8", "unit": "ng/dL"}, {"measurement": "CO, cardiac output", "setting": "male mongrel dogs; 30 min I", "result": "3.3 ± 0.3", "unit": "L/min"}, {"measurement": "DFRNa, distal fractional reabsorption of Na+", "setting": "male mongrel dogs; 30 min I", "result": "97 ± 0.4", "unit": "%"}, {"measurement": "GFR, glomerular filtration rate", "setting": "male mongrel dogs; 30 min I", "result": "52.7 ± 6.7", "unit": "mL/min"}, {"measurement": "MAP, mean arterial pressure", "setting": "male mongrel dogs; 30 min I", "result": "127 ± 4", "unit": "mmHg"}, {"measurement": "PAP, pulmonary arterial pressure", "setting": "male mongrel dogs; 30 min I", "result": "12.8 ± 0.8", "unit": "mmHg"}, {"measurement": "PCWP, pulmonary capillary wedge pressure", "setting": "male mongrel dogs; 30 min I", "result": "4.6 ± 0.5", "unit": "mmHg"}, {"measurement": "PFRNa, proximal fractional reabsorption of Na+", "setting": "male mongrel dogs; 30 min I", "result": "73 ± 2", "unit": "%"}, {"measurement": "PRA, plasma renin activity", "setting": "male mongrel dogs; 30 min I", "result": "1.9 ± 0.6", "unit": "ng/mL/h"}, {"measurement": "PVR, pulmonary vascular resistance", "setting": "male mongrel dogs; 30 min I", "result": "1.9 ± 0.2", "unit": "mmHgL^−1 · min"}, {"measurement": "RAP, right atrial pressure", "setting": "male mongrel dogs; 30 min I", "result": "2.5 ± 0.3", "unit": "mmHg"}, {"measurement": "RBF", "setting": "male mongrel dogs; 30 min I", "result": "294.2 ± 30.8", "unit": "mL/min"}, {"measurement": "RVR, renal vascular resistance", "setting": "male mongrel dogs; 30 min I", "result": "0.47 ± 0.06 × 10^−3 mmHg · L^−1 · min"}, {"measurement": "SVR, systemic vascular resistance", "setting": "male mongrel dogs; 30 min I", "result": "39.9 ± 2.7", "unit": "mmHgL^−1 · min"}, {"measurement": "ANG II, angiotensin II", "setting": "male mongrel dogs; 60 min I", "result": "10.4 ± 2.8", "unit": "pg/mL"}, {"measurement": "Aldosterone", "setting": "male mongrel dogs; 60 min I", "result": "21.4 ± 3.7", "unit": "ng/dL"}, {"measurement": "CO, cardiac output", "setting": "male mongrel dogs; 60 min I", "result": "2.8 ± 0.3", "unit": "L/min"}, {"measurement": "DFRNa, distal fractional reabsorption of Na+", "setting": "male mongrel dogs; 60 min I", "result": "97 ± 0.9", "unit": "%"}, {"measurement": "GFR, glomerular filtration rate", "setting": "male mongrel dogs; 60 min I", "result": "49.5 ± 4.2", "unit": "mL/min"}, {"measurement": "MAP, mean arterial pressure", "setting": "male mongrel dogs; 60 min I", "result": "128 ± 4", "unit": "mmHg"}, {"measurement": "PAP, pulmonary arterial pressure", "setting": "male mongrel dogs; 60 min I", "result": "13.2 ± 0.7", "unit": "mmHg"}, {"measurement": "PCWP, pulmonary capillary wedge pressure", "setting": "male mongrel dogs; 60 min I", "result": "5.6 ± 0.7", "unit": "mmHg"}, {"measurement": "PFRNa, proximal fractional reabsorption of Na+", "setting": "male mongrel dogs; 60 min I", "result": "72 ± 1", "unit": "%"}, {"measurement": "PRA, plasma renin activity", "setting": "male mongrel dogs; 60 min I", "result": "2.5 ± 0.7", "unit": "ng/mL/h"}, {"measurement": "PVR, pulmonary vascular resistance", "setting": "male mongrel dogs; 60 min I", "result": "2.1 ± 0.3", "unit": "mmHgL^−1 · min"}, {"measurement": "RAP, right atrial pressure", "setting": "male mongrel dogs; 60 min I", "result": "2.9 ± 0.3", "unit": "mmHg"}, {"measurement": "RBF", "setting": "male mongrel dogs; 60 min I", "result": "277.8 ± 29.2", "unit": "mL/min"}, {"measurement": "RVR, renal vascular resistance", "setting": "male mongrel dogs; 60 min I", "result": "0.49 ± 0.06 × 10^−3 mmHg · L^−1 · min"}, {"measurement": "SVR, systemic vascular resistance", "setting": "male mongrel dogs; 60 min I", "result": "46.9 ± 2.7^† mmHgL^−1 · min"}, {"measurement": "ANG II, angiotensin II", "setting": "male mongrel dogs; Post-I", "result": "14.4 ± 5.0", "unit": "pg/mL"}, {"measurement": "Aldosterone", "setting": "male mongrel dogs; Post-I", "result": "22.0 ± 4.2", "unit": "ng/dL"}, {"measurement": "CO, cardiac output", "setting": "male mongrel dogs; Post-I", "result": "2.6 ± 0.1", "unit": "L/min"}, {"measurement": "DFRNa, distal fractional reabsorption of Na+", "setting": "male mongrel dogs; Post-I", "result": "97 ± 0.8", "unit": "%"}, {"measurement": "GFR, glomerular filtration rate", "setting": "male mongrel dogs; Post-I", "result": "48.8 ± 5.6", "unit": "mL/min"}, {"measurement": "MAP, mean arterial pressure", "setting": "male mongrel dogs; Post-I", "result": "128 ± 4", "unit": "mmHg"}, {"measurement": "PAP, pulmonary arterial pressure", "setting": "male mongrel dogs; Post-I", "result": "13.9 ± 0.7", "unit": "mmHg"}, {"measurement": "PCWP, pulmonary capillary wedge pressure", "setting": "male mongrel dogs; Post-I", "result": "6.4 ± 0.8", "unit": "mmHg"}, {"measurement": "PFRNa, proximal fractional reabsorption of Na+", "setting": "male mongrel dogs; Post-I", "result": "73 ± 2", "unit": "%"}, {"measurement": "PRA, plasma renin activity", "setting": "male mongrel dogs; Post-I", "result": "3.2 ± 1.0", "unit": "ng/mL/h"}, {"measurement": "PVR, pulmonary vascular resistance", "setting": "male mongrel dogs; Post-I", "result": "2.2 ± 0.4", "unit": "mmHgL^−1 · min"}, {"measurement": "RAP, right atrial pressure", "setting": "male mongrel dogs; Post-I", "result": "3.5 ± 0.5", "unit": "mmHg"}, {"measurement": "RBF", "setting": "male mongrel dogs; Post-I", "result": "272.0 ± 24.5", "unit": "mL/min"}, {"measurement": "RVR, renal vascular resistance", "setting": "male mongrel dogs; Post-I", "result": "0.49 ± 0.06 × 10^−3 mmHg · L^−1 · min"}, {"measurement": "SVR, systemic vascular resistance", "setting": "male mongrel dogs; Post-I", "result": "48.7 ± 2.5^† mmHgL^−1 · min"}, {"measurement": "ANG II, angiotensin II", "setting": "male mongrel dogs; Pre-I (pre-infusion)", "result": "11.7 ± 4.7", "unit": "pg/mL"}, {"measurement": "Aldosterone", "setting": "male mongrel dogs; Pre-I (pre-infusion)", "result": "15.1 ± 4.2", "unit": "ng/dL"}, {"measurement": "CO, cardiac output", "setting": "male mongrel dogs; Pre-I (pre-infusion)", "result": "3.8 ± 0.3", "unit": "L/min"}, {"measurement": "DFRNa, distal fractional reabsorption of Na+", "setting": "male mongrel dogs; Pre-I (pre-infusion)", "result": "98 ± 0.6", "unit": "%"}, {"measurement": "GFR, glomerular filtration rate", "setting": "male mongrel dogs; Pre-I (pre-infusion)", "result": "52.2 ± 5.3", "unit": "mL/min"}, {"measurement": "MAP, mean arterial pressure", "setting": "male mongrel dogs; Pre-I (pre-infusion)", "result": "123 ± 4", "unit": "mmHg"}, {"measurement": "PAP, pulmonary arterial pressure", "setting": "male mongrel dogs; Pre-I (pre-infusion)", "result": "13.1 ± 0.8", "unit": "mmHg"}, {"measurement": "PCWP, pulmonary capillary wedge pressure", "setting": "male mongrel dogs; Pre-I (pre-infusion)", "result": "5.0 ± 0.5", "unit": "mmHg"}, {"measurement": "PFRNa, proximal fractional reabsorption of Na+", "setting": "male mongrel dogs; Pre-I (pre-infusion)", "result": "80 ± 3", "unit": "%"}, {"measurement": "PRA, plasma renin activity", "setting": "male mongrel dogs; Pre-I (pre-infusion)", "result": "2.9 ± 1.4", "unit": "ng/mL/h"}, {"measurement": "PVR, pulmonary vascular resistance", "setting": "male mongrel dogs; Pre-I (pre-infusion)", "result": "1.8 ± 0.2", "unit": "mmHgL^−1 · min"}, {"measurement": "RAP, right atrial pressure", "setting": "male mongrel dogs; Pre-I (pre-infusion)", "result": "2.6 ± 0.3", "unit": "mmHg"}, {"measurement": "RBF", "setting": "male mongrel dogs; Pre-I (pre-infusion)", "result": "273.4 ± 25.5", "unit": "mL/min"}, {"measurement": "RVR, renal vascular resistance", "setting": "male mongrel dogs; Pre-I (pre-infusion)", "result": "0.49 ± 0.07 × 10^−3 mmHg · L^−1 · min"}, {"measurement": "SVR, systemic vascular resistance", "setting": "male mongrel dogs; Pre-I (pre-infusion)", "result": "33.8 ± 2.9", "unit": "mmHgL^−1 · min"}, {"measurement": "half-life", "setting": "[1]", "result": "about a minute and a half"}]}
{"substance": "GLSKGCFGLKLDRIGSMSGLGCGKSLG [CNP-C]", "values": [{"measurement": "ANG II", "setting": "male mongrel dogs; dog, in vivo, iv", "result": "did not result in any significant changes"}, {"measurement": "GFR", "setting": "male mongrel dogs; dog, in vivo, iv", "result": "did not result in any significant changes"}, {"measurement": "PRA", "setting": "male mongrel dogs; dog, in vivo, iv", "result": "did not result in any significant changes"}, {"measurement": "Pulmonary capillary wedge pressure", "setting": "male mongrel dogs; dog, in vivo, iv", "result": "4.3±0.8 mmHg and 3.4±0.8 mmHg"}, {"measurement": "diuresis", "setting": "male mongrel dogs; dog, in vivo, iv", "result": "did not result in any significant changes"}, {"measurement": "mean arterial pressure", "setting": "male mongrel dogs; dog, in vivo, iv", "result": "132±6 mmHg and 128±5 mmHg"}, {"measurement": "natriuresis", "setting": "male mongrel dogs; dog, in vivo, iv", "result": "did not result in any significant changes"}, {"measurement": "plasma cGMP", "setting": "male mongrel dogs; dog, in vivo, iv", "result": "did not result in any significant changes"}, {"measurement": "urinary cGMP excretion", "setting": "male mongrel dogs; dog, in vivo, iv", "result": "did not result in any significant changes"}]}
{"substance": "PSLRDPRPNAPSTSA [C-terminus]", "values": [{"measurement": "DFRNa, distal fractional sodium reabsorption", "setting": "normal anesthetized dogs", "result": "98.7 ± 0.3", "unit": "%"}, {"measurement": "GFR, glomerular filtration rate", "setting": "normal anesthetized dogs", "result": "34 ± 6", "unit": "mL/min"}, {"measurement": "PFRNa, proximal fractional sodium reabsorption", "setting": "normal anesthetized dogs", "result": "77.9 ± 2.7", "unit": "%"}, {"measurement": "RBF, renal blood flow", "setting": "normal anesthetized dogs", "result": "213 ± 19", "unit": "mL/min"}, {"measurement": "UcGMPV, urinary cGMP excretion", "setting": "normal anesthetized dogs", "result": "1674 ± 213", "unit": "pmol/min"}, {"measurement": "DFRNa, distal fractional sodium reabsorption", "setting": "normal anesthetized dogs; iv", "result": "97.8 ± 0.5", "unit": "%"}, {"measurement": "GFR, glomerular filtration rate", "setting": "normal anesthetized dogs; iv", "result": "44 ± 6", "unit": "mL/min"}, {"measurement": "PFRNa, proximal fractional sodium reabsorption", "setting": "normal anesthetized dogs; iv", "result": "71.0 ± 2.6", "unit": "%"}, {"measurement": "RBF, renal blood flow", "setting": "normal anesthetized dogs; iv", "result": "198 ± 27", "unit": "mL/min"}, {"measurement": "UcGMPV, urinary cGMP excretion", "setting": "normal anesthetized dogs; iv", "result": "2275 ± 231", "unit": "pmol/min"}, {"measurement": "natriuretic and diuretic action (urinary excretion of sodium, urine flow)", "setting": "normal anesthetized dogs; iv", "result": "natriuretic and diuretic"}]}
